Reference: US20080125454A1, “Methods and Compositions for Treatment of Scleritis and Related Disorders” (Wyeth, priority 2006, published 2008)

Target: T1, P-selectin binding to P-selectin glycoprotein ligand-1 (PSGL-1) (Homo sapiens, UniProt P16109)
T1 construct: truncated form of human P-selectin comprised of the lectin and EGF domains (P-LE)
T1 sequence (P16109 42-198): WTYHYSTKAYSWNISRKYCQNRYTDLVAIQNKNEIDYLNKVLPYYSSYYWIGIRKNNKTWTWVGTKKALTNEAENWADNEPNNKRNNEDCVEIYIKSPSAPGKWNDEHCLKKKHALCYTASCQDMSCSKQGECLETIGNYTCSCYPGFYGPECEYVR
Assay: Biacore inhibition of P-selectin binding to PSGL-1 (P-LE binding to immobilized SGP-3)
Conditions: 1 mM; read-out: percent inhibition of binding (positive control)
Description: Compounds of the present teachings can be assayed for selectin inhibitory activity using any of the procedures known in the art. One convenient procedure is the determination of IC50 values for inhibition of P-selectin binding to P-selectin glycoprotein ligand-1 (PSGL-1) using a Biacore instrument.
The Biacore 3000 is an instrument that uses surface plasmon resonance to detect binding of a solution phase analyte to an immobilized ligand on a sensor chip surface. The analyte sample is injected under flow using a microfluidic system. Binding of analyte to ligand causes a change in the angle of refracted light at the surface of the sensor chip, measured by the Biacore instrument in resonance units (RUs).
SGP-3 is a purified sulfoglycopeptide form of human PSGL-1 that contains the P-selectin binding determinants (See Somers et al., 2000, Cell 103, 467-479). […]
The Biacore assay measures the signal in RU produced by binding of P-LE to SGP-3 in the presence and absence of inhibitors. Percent inhibition of binding is calculated by dividing the inhibited signal by the uninhibited signal subtracting this value from one then multiplying by one hundred. […] The data from this titration are plotted, RU values vs. concentration, and the IC50 is determined by extrapolation from the plot. […]

inhibition at 1000 µM: 50%
Structure (SMILES): CC1(C)[C@@H](O[C@H]2O[C@H](C(=O)O)[C@@H](O)[C@H](O)[C@H]2O[C@@H]2O[C@H](C(=O)O)[C@@H](O)[C@H](O)[C@H]2O)CC[C@]2(C)[C@H]3C(=O)C=C4[C@@H]5C[C@@](C)(C(=O)O)CC[C@]5(C)CC[C@@]4(C)[C@]3(C)CC[C@@H]12 [Glycyrrhizin]
